What was measured:
[1] = test system: LTC4 release from IgE/antigen-activated mouse mast cells (BMMC); assay: Inhibition of LTC4 release in allergen/IgE-activated bone marrow-derived mouse mast cells; format: cell-based; settings: BMMC, anti-DNP IgE sensitized, DNP-BSA 30 ng/ml, 30 min
Text: (§1) Inhibition of LTC4 release and degranulation in allergen/IgE-activated bone marrow-derived mouse mast cells (BMMC): Bone marrow-derived mast cells (BMMC) were generated from pathogen-free 5-7 week old male Balb/c mice according to the method of Davis et al., [2004] (Davis, B. J., et al., (2004), Journal of Immunology, 173: 6914-6920). Essentially, bone marrow cells were obtained by flushing of the femoral bone marrow and cultured in RPMI 1640 medium supplemented with 10% FBS, 100 U/ml penicillin, and 100 μg/ml streptomycin, 25 mM HEPES, 1.0 mM sodium pyruvate, 0.1 mM nonessential amino acids, 0.0035% 2-mercaptoethanol, and 30 ng/ml mouse recombinant IL-3, with culture medium replaced every two days. Cells were used after 4-8 weeks of culture, by which time at least 97% of the cells would have differentiated into mast cells.
(§2) The generated BMMCs were seeded at 5×10^4 cells/well in a 96-well flat-bottom culture plate and passively sensitized overnight with 0.5 μg/ml anti-DNP monoclonal IgE antibody (clone SPE-7, Sigma-Aldrich, St. Louis, Mo., USA). The cells were then washed twice to remove any unbound antibody and subsequently re-suspended in reaction buffer (135 mM NaCl, 5 mM KCl, 1.8 mM CaCl2), 1 mM MgCl2, 5.6 mM glucose, 0.05% BSA and 20 mM HEPES, pH 7.4). They were then pre-incubated with the test compounds (0.01-30 μM) or the solvent (0.05% DMSO) for 15 min before being stimulated with the specific antigen, DNP-BSA (30 ng/ml). After 30 min incubation at 37° C., the amount of LTC4 released into the supernatant (as index of 5-LO activity) was determined by ELISA as described below.
Assay of released leukotrienes/β-hexoseaminidase enzyme: Appropriately diluted supernatants were assayed for the released LTs (LTB4 and LTC4), by the enzyme immunoassay (EIA) method using assay kits supplied by R&D Systems (Minneapolis, Minn., USA) and following the manufacturer's instructions.

[2] = test system: degranulation of bone marrow-derived mouse mast cells; assay: Inhibition of degranulation (β-hexoseaminidase release) in allergen/IgE-activated BMMC; format: cell-based; settings: anti-DNP IgE sensitized, DNP-BSA 30 ng/ml, 30 min
Text: as §1
as §2, with “They were then pre-incubated with the test compounds (0.01-30 μM) or the solvent (0.05% DMSO) for 15 min before being stimulated with the specific antigen, DNP-BSA (30 ng/ml).” left out
The concurrently-released granular enzyme, β-hexoseaminidase (as index of degranulation) was determined as described below.
The beta-hexoseaminidase released into the supernatant by the degranulating BMMCs was determined colorimetrically using p-nitrophenyl-N-acetyl-β-D-glucosaminide as substrate. […] The absorbance of the colored product (p-nitrophenol) was then read at 405 nm in a microplate reader. Results were expressed as percentage of the total cell content (determined in cells lysed with 0.1% triton-x-100).

[3] = target: T1, recombinant human 5-LO enzyme (Homo sapiens, UniProt P09917); assay: Direct 5-LO inhibitory activity in a cell-free assay (H2DCF-DA fluorescence); format: biochemical; settings: cell-free, recombinant human 5-LO; read-out: Inhibitory Activity IC50, Human recomb. 5-LO
T1 sequence (P09917 1-674): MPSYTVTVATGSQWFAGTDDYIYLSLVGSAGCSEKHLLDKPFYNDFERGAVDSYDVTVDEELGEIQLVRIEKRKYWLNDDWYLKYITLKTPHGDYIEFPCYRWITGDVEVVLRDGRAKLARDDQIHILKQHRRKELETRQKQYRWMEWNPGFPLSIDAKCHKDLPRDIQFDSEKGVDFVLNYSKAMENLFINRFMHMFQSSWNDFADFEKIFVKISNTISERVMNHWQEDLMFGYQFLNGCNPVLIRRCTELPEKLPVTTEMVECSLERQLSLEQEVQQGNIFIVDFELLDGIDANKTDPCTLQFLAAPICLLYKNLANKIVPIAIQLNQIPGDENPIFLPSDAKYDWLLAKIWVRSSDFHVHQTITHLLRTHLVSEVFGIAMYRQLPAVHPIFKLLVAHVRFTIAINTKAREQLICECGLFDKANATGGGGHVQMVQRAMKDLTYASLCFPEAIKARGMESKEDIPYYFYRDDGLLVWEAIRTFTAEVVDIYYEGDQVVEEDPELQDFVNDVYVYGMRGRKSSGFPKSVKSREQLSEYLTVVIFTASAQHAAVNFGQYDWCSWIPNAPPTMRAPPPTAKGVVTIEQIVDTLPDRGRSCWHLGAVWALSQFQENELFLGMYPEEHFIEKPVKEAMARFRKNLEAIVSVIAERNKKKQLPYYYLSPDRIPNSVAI
Experimental: H2DCF-DA (60 μM) was first pre-cleaved by incubating with 450 mU/ml recombinant human 5-LO enzyme in Tris buffer (containing 50 mM Tris, pH=7.5, 2 mM EDTA, 2 mM CaCl2), 1 mM dithiothreitol (DTT) and 0.6 U/ml glutathione peroxidase) for 10 min at room temperature. […] After 10 min incubation at room temperature, the reaction was started with the addition of 50 μl of the substrate solution (Tris buffer containing 20 μM ATP and 20 μM arachidonic acid). After a further 20 min, the reaction was terminated with 100 μl acetonitrile. Fluorescence was read at 500 nm excitation and 520 emission, with Novostar® microplate reader (BMG Labtech, Offenburg, Germany). Appropriate controls, including 100 μM nordihydroguaiaretic acid (NDGA), were included to isolate only the 5-LO-attributable, NDGA-inhibitable RFU values.

[4] = test system: zymosan-induced peritonitis; assay: Zymosan-induced peritoneal inflammation in mice; format: in vivo, mouse; settings: 30 min before zymosan i.p., peritoneal exudate at 2 h
Text: Inhibition of zymosan-induced peritoneal inflammation in mice: Female Balb/c mice, 6-8 weeks old, obtained from the Animal Resources Center of the Health Sciences Center, Kuwait University, were used. They were maintained under temperature-controlled conditions with an artificial 12-h light/dark cycle and allowed standard chow and water ad libitum. The study protocol was approved by the “Health Sciences Center Animal Welfare Committee” and complied with the “Guidelines for the Care and Use of Laboratory Animals” of the Health Sciences Centre, Kuwait University. The zymosan-induced peritonitis model-a recognized LT-mediated inflammatory reaction, described particularly in Hanke et al., 2013 ([…]., et al. (2013). Journal of medicinal chemistry, 56(22), 9031-9044) was used. […] After 30 min, all groups were injected intraperitonally with 0.2 ml of activated zymosan (2 mg/ml) except the control group that received 0.2 ml PBS. After 2 h, all animals were killed and the peritoneal exudate was collected by washing the cavity with 3 ml of heparinized (10 IU/ml) PBS.

**Q.** Which “Inhibition of generation of LTC4 from IgE/allergen-activated mast cells (FIG. 2A)” value [1] does the source give for `CCCCCCCC(=O)N(O)C[C@H]1CN(c2ccc(N3CCOCC3)c(F)c2)C(=O)O1` [PH-251, (R)—N-((3-(3-fluoro-4-morpholinophenyl)-2-oxooxazolidin-5-yl)methyl)-N-hydroxyoctanamide] here?
**A.** equally effective in inhibiting the generation of LTC4

**Q.** What about the “Inhibition of degranulation (release of granular β-hexoseaminidase) (FIG. 2B)” value [2] of the same molecule?
**A.** able to inhibit degranulation

**Q.** And the melting point?
**A.** 119 to 122 °C

**Q.** What about the IC50 [3] of the same molecule?
**A.** 1600 nM

**Q.** What about the “Net Exudate Vol” value ([4]; 3 mg/kg s.c.) of the same molecule?
**A.** 0.24 ± 0.05 mL

**Q.** What about the “Total Cell No” value ([4]; 3 mg/kg s.c.) of the same molecule?
**A.** 21.1 ± 1.6 ×10^6

**Q.** What about the “Total LTC4” value ([4]; 3 mg/kg s.c.) of the same molecule?
**A.** 101.7 ± 20.2 ng

**Q.** What about the “Net Exudate Vol” value ([4]; 10 mg/kg s.c.) of the same molecule?
**A.** 0.12 ± 0.08 mL

**Q.** What about the “Total Cell No” value ([4]; 10 mg/kg s.c.) of the same molecule?
**A.** 16.4 ±17 ×10^6

**Q.** And the “Total LTC4” value ([4]; 10 mg/kg s.c.)?
**A.** 77.4 ± 16.8 ng

**Q.** What about the “Net Exudate Vol” value ([4]; 30 mg/kg s.c.) of the same molecule?
**A.** 0.04 ± 0.02 mL

**Q.** What about the “Total Cell No” value ([4]; 30 mg/kg s.c.) of the same molecule?
**A.** 17.6 ± 2.1 ×10^6

**Q.** And the “Total LTC4” value ([4]; 30 mg/kg s.c.)?
**A.** 33.9 ± 4.9 ng
